From patent US8617555B2, “Pharmaceutical compositions comprising activated-potentiated antibodies to human insulin receptor and endothelial nitric oxide (NO) synthase” (priority 2010, dated 2013)

Key:
[1] = system: rats with streptozotocin-induced diabetes mellitus; experiment: Fasting blood plasma glucose level in rats with streptozotocin-induced diabetes mellitus; type: in vivo, Wistar rats; details: STZ rats
Procedure: In the study, 150 male Wistar were used (weight at beginning of study 250-300 g, age 3.5-4 months). 10 rats were intact. The rest were intravenously injected with streptozotocin at the dose of 50 mg/kg (experimental model of diabetes mellitus). […] Intact rats received distilled water in the same volume. On days 7, 14 and 21 of injection of preparations in rats, fasting blood plasma glucose level measured with enzymatic method (glucose oxidase method) with utilization of “glucose FKD” kits (Russia).

[2] = system: rats with streptozotocin-induced diabetes mellitus; experiment: Oral glucose tolerance test (OGTT) on day 14 in rats with streptozotocin-induced diabetes mellitus; type: in vivo, Wistar rats; details: STZ rats; day 14 of injection; glucose 1 g/kg per os; administered alone
Procedure: The rats were starving at water for 18 hours. 60 min before the test they were last given test substances. Intact rats received distilled water in the same volume. Glucose was administered per os 50% w/w water glucose solution (1 g/kg of rat weight). Serum glucose of blood sample from tail vein was measured by using “Glucose FKD” kit (OOO “Pharamaceutical and clinical diagnostics, Russia) at 0, 30, 60, 90, 120 min. Mean area under the curve (AUC) concentration of blood glucose over time was calculated.

For “insulin: short-acting insulin, 8 units/kg/day subcutaneously, 1/2 of the effective dose”, the “effect on blood plasma glucose level (in words)” value ([1]; all observation periods, 1/2 of the effective dose, glucose measured 1 hour after injection) was “down to the level of the intact control” and the “glucose tolerance, area under concentration-time curve (AUC) in OGTT (in words)” value [2] was “most effectively increased glucose tolerance”.
With `CN(CCOc1ccc(CC2SC(=O)NC2=O)cc1)c1ccccn1` (stereo not drawn) [Rosiglitazone] the “decrease in glucose level versus control” value ([1]; day 14 of the experiment, p<0.05 versus control) was 36%.
